Measurements from publication PMC11503492, “Activity-Based DNA-Encoded Library Screening for Selective Inhibitors of Eukaryotic Translation” (ACS Central Science, 2024).

What was measured:
[1] = tested on: RPL27[1:32]-GFP translation; assay: WG IVTT activity assay, RPL27[1:32]-GFP template; type: biochemical, wheat germ
Excerpt: A commercially available wheat germ lysate (WG) IVTT system was employed to assay translation inhibition. Translation activity was detected via a GFP reporter, and the assay was miniaturized to picoliter-scale microfluidic droplets (Figure 1A,B). […] PCSK9 and RPL27 were truncated to the first 33 and 32 amino acids, respectively (PCSK9[1:33] and RPL27[1:32]). The sequences contain distinct PF846 stall sites and were both fused to a GFP reporter. The GFP reporter and a frameshift mutant of PCSK9[1:33] (PCSK9-FS[1:33]), which mutates the nascent chain sequence while maintaining a nearly identical mRNA sequence, were included as negative controls.[13] […] The WG IVTT assay was miniaturized using a previously described microfluidic circuit modified for longer incubation times (Figure S1)[27] using PF846 as a positive control compound, and assay statistical quality was calculated (Z′=0.7) (Figure 1E). […] Assay statistical quality using PC-HygB positive control beads was similarly calculated (Z′ = 0.75, Figure 1H). […]
429 of encoding region identifiers was then determined using a UMI aggregation algorithm; […]
433 manually determined threshold (10) were discarded. […]
440 progress was immediately monitored (λex = 480 nm, λem = 530 nm, 27 °C, 2 h). […]
441 tive activity was calculated using the slope of fluorescence increase over time (at 15–30 […]
Figure S11. […] Compound 8 (black) and PF846 (gray) were analyzed […]

[2] = tested on: MST1[1:39]-GFP translation; assay: WG IVTT activity assay, MST1[1:39]-GFP template; type: biochemical, wheat germ; settings: WG IVTT dose-response
Method: page 21: 421 region sequences were matched to an alpha numeric DNA region identifier (11[…], respectively), while allowing a 1-bp mutation per encoding region. 423 No insertions or deletions were tolerated. […] A sum of UMI counts for all remaining unique combinations 429 of encoding region identifiers was then determined using a UMI aggregation algorithm; 430 1 bp mutations were considered the same UMI. Encoding region identifiers were then 431 converted to library BB identifiers per the library design with an associated UMI count. 432 Any encoding region/ bead-specific barcode combinations with a UMI count below a 433 manually determined threshold (10) were discarded. The remaining ”valid beads” were 434 aggregated by cycle 1/2 BB combinations and the number of unique encoding regions 435 observed for each BB combination defined the k-class for that BB combination.S8 436 Microplate IVTT Assays 437 Wheat germ lysate IVTT plate assays were prepared as 5 μL reactions. […] Template (1 μL) was added and reaction 440 progress was immediately monitored (λex = 480 nm, λem = 530 nm, 27 °C, 2 h). […] activity was calculated using the slope of fluorescence increase over time (at 15-30 442 min post reaction initiation) for compound samples relative to that of the DMSO vehicle 443 control. […]

Structure (SMILES): Cc1cccc2ccnc(N(C(=O)[C@H]3CCCN(C(=O)c4cccc5c(C#N)c[nH]c45)C3)[C@@H]3CCCNC3)c12 [Compound 8]
- activity on RPL27[1:32]-GFP translation (in words) [1]: most active
- activity on MST1[1:39]-GFP translation (in words) [2]: inactive
